Test: DPPH radical scavenging antioxidant test
Format: biochemical
Conditions: 517 nm; for Inhibition (radical scavenging inhibition): 0.2 mL DPPH (0.75 mM), compound 3 μM in ethanol, 30 min incubation in the dark
Procedure: The antioxidant properties of the 4,4′-naphthalene-1,5-diylbis(diazene-2,1-diyl)dinaphthalen-1-ol were studied by adding 0.2 mL DPPH (0.75 mM)) to compound 4,4′-naphthalene-1,5-diylbis(diazene-2,1-diyl)dinaphthalen-1-01 (III) (3 μM) in ethanol. After 30 min of incubation in the dark, the absorbance was read against a blank at 517 nm. Ascorbic acid (vitamin C) was used as standard antioxidants (positive control). A blank sample was prepared by 0.2 ml of DPPH in 3 ml ethanol. A negative control sample was run using ethanol instead of the sample. The radical scavenging inhibition was calculated using the following equation: […]

Oc1ccc(N=Nc2cccc3c(N=Nc4ccc(O)c5ccccc45)cccc23)c2ccccc12 [Product III, 4,4′-naphthalene-1,5-diylbis(diazene-2,1-diyl)dinaphthalen-1-ol]
Inhibition (radical scavenging inhibition): 54% | antioxidant potential compared to vitamin C (in words) (DPPH in vitro test, vitamin C as positive control): high potential as an antioxidant compared to vitamin C

O=C1O[C@H]([C@@H](O)CO)C(O)=C1O [vit c, Ascorbic acid, reference compound]
Inhibition (radical scavenging inhibition): 74%

Source: patent US11919837B1, “4,4′-naphthalene-1,5-diylbis(diazene-2,1-diyl)dinaphthalen-1-ol as an antioxidant compound” (KING FAISAL UNIVERSITY, priority 2023, dated 2024)
